From publication PMC8830019, “A sensitive, accurate, and high-throughput gluco-oligosaccharide oxidase-based HRP colorimetric method for assaying lytic polysaccharide monooxygenase activity” (Biotechnology for Biofuels and Bioproducts, 2022)

Molecular target: T1, SsGOOX (recombinant gluco-oligosaccharide oxidase) (Sarocladium strictum, UniProt Q6PW77)
T1 construct: gene gluO; T. reesei cbh1 signal peptide at N-terminus, C-terminal 6xHis; codon-optimised synthetic gene, secreted by Trichoderma reesei QM9414
T1 sequence (Q6PW77 26-499): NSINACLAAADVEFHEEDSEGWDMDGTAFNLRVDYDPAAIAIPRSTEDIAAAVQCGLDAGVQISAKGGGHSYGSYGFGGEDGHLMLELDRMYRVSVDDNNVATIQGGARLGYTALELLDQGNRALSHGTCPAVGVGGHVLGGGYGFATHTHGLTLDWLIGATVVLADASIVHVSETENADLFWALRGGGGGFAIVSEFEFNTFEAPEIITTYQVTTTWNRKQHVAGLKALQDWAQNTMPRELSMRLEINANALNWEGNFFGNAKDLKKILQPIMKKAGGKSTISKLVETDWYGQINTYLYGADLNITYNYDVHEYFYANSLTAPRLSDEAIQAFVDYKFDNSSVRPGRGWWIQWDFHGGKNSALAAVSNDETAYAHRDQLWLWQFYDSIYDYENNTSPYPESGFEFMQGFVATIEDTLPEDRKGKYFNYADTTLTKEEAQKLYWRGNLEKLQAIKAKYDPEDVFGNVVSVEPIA
Assay: HRP-coupled colorimetric H2O2 assay (4-AAP / DCHBS, A515), modified Hill's model with substrate inhibition
Type: biochemical
Conditions: pH 7.0 phosphate, room temperature (about 26 C), 10 nM enzyme, 0.02-5 mM cellobiose; Hill-type fit with substrate inhibition; substrate inhibition constant; second site

OC[C@H]1O[C@@H](O[C@H]2[C@H](O)[C@@H](O)C(O)O[C@@H]2CO)[C@H](O)[C@@H](O)[C@@H]1O (stereo partly shown) [cellobiose]
Ki: 995 µM
